Source: PubChem BioAssay AID1033 (Sanford-Burnham Center for Chemical Genomics, 2008)
Active and inactive are the calls of the source. How the calls were made is not given here.

Target: Chaperone protein DnaK (Escherichia coli (strain K12)) (UniProt P0A6Y8)
Test: binders of DnaK substrate-binding domain, biophysical, NMR, chaperone (AID 1033)
Details: Purified DnaK SBD, NMR ligand binding

Chaperone protein DnaK (Escherichia coli (strain K12)), sequence (P0A6Y8 whole entry, looked up, the tested form may be a part): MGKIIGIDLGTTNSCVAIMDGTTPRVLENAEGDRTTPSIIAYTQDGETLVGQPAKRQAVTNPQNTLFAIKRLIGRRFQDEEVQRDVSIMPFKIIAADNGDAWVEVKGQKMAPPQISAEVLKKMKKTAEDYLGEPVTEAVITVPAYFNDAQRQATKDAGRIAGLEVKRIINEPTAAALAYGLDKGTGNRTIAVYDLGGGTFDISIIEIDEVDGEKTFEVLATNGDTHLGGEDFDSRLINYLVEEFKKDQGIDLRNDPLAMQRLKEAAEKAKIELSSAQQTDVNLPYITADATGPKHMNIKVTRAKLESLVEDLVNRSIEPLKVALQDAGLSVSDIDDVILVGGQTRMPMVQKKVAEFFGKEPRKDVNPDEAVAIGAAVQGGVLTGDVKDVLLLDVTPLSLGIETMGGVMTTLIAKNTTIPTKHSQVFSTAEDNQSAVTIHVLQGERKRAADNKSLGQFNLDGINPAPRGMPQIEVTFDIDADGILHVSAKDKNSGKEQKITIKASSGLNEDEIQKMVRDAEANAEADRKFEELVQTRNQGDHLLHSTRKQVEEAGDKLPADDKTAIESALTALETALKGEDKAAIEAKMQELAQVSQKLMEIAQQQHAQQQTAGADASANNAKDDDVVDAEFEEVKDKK

COc1cc(C(=O)NCC2CCCO2)cc(OC)c1OC (configuration not stated)
Kd: > 4 mM (inactive)

Cn1c(=O)[nH]c(=O)c2c1ncn2CCN1CCCCC1
Kd: > 4 mM (inactive)

CC(=O)c1c(O)cc(O)cc1O
Kd: > 4 mM (inactive)

CCC(C)C(=O)O[C@H]1[C@H](O)C2C(CN3CC(C)CCC3[C@@]2(C)O)C2C[C@]34O[C@]5(O)C(OC(=O)C(C)(O)CC)CC[C@@]3(C)C5C(OC(C)=O)[C@@H](OC(C)=O)C4[C@@]21O (some centres not stated)
Kd: > 4 mM (inactive)

COc1ccc(Cc2nnc3c4cnn(C)c4ncn23)cc1
Kd: > 4 mM (inactive)

CCc1cc2c(SCC(=O)O)ncnc2s1
Kd: > 4 mM (inactive)

Cc1nnc(SCc2ccccc2)[nH]c1=O
Kd: > 4 mM (inactive)

CC(=O)O[C@@H]1CC2C(C)(C)C(=O)C=C[C@]2(C)C2CC[C@]3(C)C(=CC(=O)O[C@H]3c3ccoc3)[C@@]21C (some centres not stated)
Kd: > 4 mM (inactive)

COc1c2ccoc2nc2c(OC)c(OCC(O)C(C)(C)O)ccc12 (configuration not stated)
Kd: > 4 mM (inactive)

O=c1ccc2cc(O[C@@H]3O[C@H](CO)[C@@H](O)[C@H](O)[C@H]3O)c(O)cc2o1
Kd: > 4 mM (inactive)

CC1CCC2(OC1)OC1CC3C4CC[C@H]5C[C@@H](O)CC[C@]5(C)C4CC(=O)[C@]3(C)C1C2C (some centres not stated)
Kd: > 4 mM (inactive)

NC1=NC(=O)/C(=C/c2ccc(O)c(Cl)c2)S1
Kd: > 4 mM (inactive)

O=c1c2c(nc3nc(COc4ccccc4)[nH]n13)CCC2
Kd: > 4 mM (inactive)

N/N=C/c1cccnc1
Kd: > 4 mM (inactive)

CCOc1ccc2ccccc2c1C(=O)N1CCOCC1
Kd: > 4 mM (inactive)

Cc1nnc(NCCN2CCOCC2)[nH]c1=O
Kd: > 4 mM (inactive)

C/C=C(\C)c1nnc(NC(=O)C(C)C)s1
Kd: > 4 mM (inactive)

O=C1CN(c2ccccc2)CC(=O)N1
Kd: > 4 mM (inactive)

COc1ccc(-c2oc3ccccc3c(=O)c2O)cc1OC
Kd: > 4 mM (inactive)

Cc1ccc(Nc2nnns2)cc1C
Kd: > 4 mM (inactive)

C[C@@H]1CC[C@@]2(OC1)O[C@H]1CC3C4CC[C@H]5C[C@@H](O)CC[C@]5(C)C4CC[C@]3(C)[C@H]1[C@@H]2C (some centres not stated)
Kd: > 4 mM (inactive)

NC(=O)Cn1nc(-c2ccc(F)cc2)ccc1=O
Kd: > 4 mM (inactive)

Cc1cc(C)n2nc(-c3cccnc3)nc2n1
Kd: > 4 mM (inactive)

Cn1nnc2c(N3CCC(C(N)=O)CC3)ncnc21
Kd: > 4 mM (inactive)

CC1=CC(C)C(C(=O)O)C(C(=O)N2CCN(C)CC2)C1 (configuration not stated)
Kd: > 4 mM (inactive)

Cn1ncc(N2CCOCC2)c(Cl)c1=O
Kd: > 4 mM (inactive)

CC(=O)CC1(O)C(=O)Nc2ccccc21 (configuration not stated)
Kd: > 4 mM (inactive)

Cc1cccc(N2C(=O)CC(=O)NC2=O)c1
Kd: > 4 mM (inactive)

c1ccc2c(c1)ncn2CCn1cnc2ccccc21
Kd: > 4 mM (inactive)

NC(=O)c1c(Cl)nsc1-c1ccccc1Cl
Kd: > 4 mM (inactive)

Nc1ccc(F)cc1F
Kd: > 4 mM (inactive)

CC(O)c1nc2ccccc2[nH]1 (configuration not stated)
Kd: > 4 mM (inactive)

c1coc(CNc2nc(-c3ccncc3)cs2)c1
Kd: > 4 mM (inactive)

Cc1cc(C)n(CCC(=O)O)n1
Kd: > 4 mM (inactive)

NC1CS(=O)(=O)CC1O (configuration not stated)
Kd: > 4 mM (inactive)

COCC(=O)Nc1cc2c3c(c1)CCN3C(=O)CC2
Kd: > 4 mM (inactive)

Nc1cccc(-n2cccc2)c1
Kd: > 4 mM (inactive)

CCOc1cccc(C(=O)c2ccc(O)c(O)c2O)c1
Kd: > 4 mM (inactive)

CCC(C)OC1CCS(=O)(=O)C1 (configuration not stated)
Kd: > 4 mM (inactive)

CC(=O)N/N=C(\C)c1cccc(N)c1
Kd: > 4 mM (inactive)

C[C@@H]1O[C@@H](O[C@H]2[C@@H](Oc3cc(O)c4c(c3)O[C@H](c3ccc(O)cc3)CC4=O)O[C@H](CO)[C@@H](O)[C@@H]2O)[C@H](O)[C@H](O)[C@H]1O
Kd: > 4 mM (inactive)

Cc1ccc2c(c1)CC[C@H]1CC(=O)CC[C@]21C
Kd: > 4 mM (inactive)

Cn1c(CO)nc2cc(N)ccc21
Kd: > 4 mM (inactive)

CC(=O)O[C@H]1CC[C@@]2(C)C(CC[C@]3(C)C2CC=C2C4CC(C)(C)CC[C@]4(C)CC[C@]23C)C1(C)C (some centres not stated)
Kd: > 4 mM (inactive)

COc1cccc(/C=C2/SC(N)=NC2=O)c1
Kd: > 4 mM (inactive)

CNS(=O)(=O)c1cccs1
Kd: > 4 mM (inactive)

O=C(O)c1cc(=O)[nH]c2ccccc12
Kd: > 4 mM (inactive)

CC(=O)OC(C)(C)[C@@H]1Cc2cc3ccc(=O)oc3cc2O1
Kd: > 4 mM (inactive)

CSc1nc2nc(C)cc(=O)n2[nH]1
Kd: > 4 mM (inactive)

CNC(=O)C(=O)Nc1c(C)cccc1C
Kd: > 4 mM (inactive)

CC(=O)N1CCN(c2ccc(O)cc2)CC1
Kd: > 4 mM (inactive)

c1ccc(-c2csc(Nc3cccnc3)n2)nc1
Kd: > 4 mM (inactive)

C=C1C2CC[C@H]3[C@]4(C)C[C@H](OC5OC(CO)C(OS(=O)(=O)O)C(OS(=O)(=O)O)C5OC(=O)CC(C)C)C[C@@H](C(=O)O)[C@H]4CC[C@]3(C2)[C@H]1O (some centres not stated)
Kd: > 4 mM (inactive)

Cn1c(SCc2ccon2)nc2ccccc2c1=O
Kd: > 4 mM (inactive)

O=C(Nc1ccc(Cl)cn1)c1cnn2cccnc12
Kd: > 4 mM (inactive)

Cn1nccc1N
Kd: > 4 mM (inactive)

CC1(C)C2CC[C@]3(C)C(C(=O)C=C4[C@H]5C[C@@](C)(C(=O)O)CC[C@]5(C)CC[C@]43C)[C@@]2(C)CC[C@@H]1O (some centres not stated)
Kd: > 4 mM (inactive)

COc1ccc(N2C(=O)CCC2=O)c(OC)c1
Kd: > 4 mM (inactive)

[O-][n+]1c2ccccc2[n+]([O-])c2cc(O)ccc21
Kd: > 4 mM (inactive)

Cc1nc2ccccc2c(=O)n1-c1cccc(O)c1
Kd: > 4 mM (inactive)

CC1CCCN(C/C(O)=C(\C#N)c2nc3ccccc3[nH]2)C1 (configuration not stated)
Kd: > 4 mM (inactive)

c1ccc(CCNc2ncnc3nc[nH]c23)cc1
Kd: > 4 mM (inactive)

CC(=O)NC(C)(C)C1CC=C(C)/C(=N\O)C1 (configuration not stated)
Kd: > 4 mM (inactive)

COc1ccc(-c2nc(C)sc2CC(=O)O)cc1
Kd: > 4 mM (inactive)

O=C(NCCCO)c1ccncc1
Kd: > 4 mM (inactive)

Cc1[nH]n(-c2ccccc2)c(=O)c1[N+](=O)[O-]
Kd: > 4 mM (inactive)

O=C1CCC(=O)N1c1nc2ccccc2s1
Kd: > 4 mM (inactive)

CN(C)C(=S)Nc1ccccc1N1CCOCC1
Kd: > 4 mM (inactive)

Cc1ccc(-c2nnc3sc(-c4ccncc4)nn23)cc1
Kd: > 4 mM (inactive)

O=C(O)CSCc1ccc(Cl)cc1
Kd: > 4 mM (inactive)

CCCCCC1C(=O)CCC1CC(=O)O (configuration not stated)
Kd: > 4 mM (inactive)

CCN=Cc1c(O)n(-c2ccccc2C)c(=O)[nH]c1=O
Kd: > 4 mM (inactive)

Nc1ccc(-c2cn3c(n2)SCC3)cc1
Kd: > 4 mM (inactive)

CCc1ccc(/C=N/n2cnnc2)cc1
Kd: > 4 mM (inactive)

COc1cc2c(cc1-c1cc3cc4ccoc4cc3oc1=O)OCO2
Kd: > 4 mM (inactive)

CC(=O)C1CCC2C3CCC4C[C@H](O)CCC4(C)C3C[C@H](O)C12C (some centres not stated)
Kd: > 4 mM (inactive)

Cc1ccc2cccc(OC(=O)N3CCCC3)c2n1
Kd: > 4 mM (inactive)

Oc1ccc(C2SCCS2)cc1
Kd: > 4 mM (inactive)

CC(=O)O[C@H]1C[C@@H](OC(C)=O)C(C)(C)C2C[C@@H](OC(C)=O)[C@]3(C)C([C@H](OC(C)=O)C[C@@]4(C)[C@H](c5ccoc5)OC(=O)[C@H]5O[C@]543)[C@]21C (some centres not stated)
Kd: > 4 mM (inactive)

O=C(Nc1ccccc1C(F)(F)F)N1CCCCCC1
Kd: > 4 mM (inactive)

O=C1NC(=Nc2ccccc2Cl)SC1(CO)CO
Kd: > 4 mM (inactive)

c1ccc(-c2nsc(N3CCNCC3)n2)cc1
Kd: > 4 mM (inactive)

Cc1ccccc1NC(=O)CC1SC(N)=NC1=O (configuration not stated)
Kd: > 4 mM (inactive)

Nc1ccc(NC(=O)c2ccco2)c(Cl)c1
Kd: > 4 mM (inactive)

Cc1cccc(OCc2nnc(N)s2)c1
Kd: > 4 mM (inactive)

CC(=O)NC(NC(C)=O)c1ccccc1
Kd: > 4 mM (inactive)

Cc1nn2c(=O)nc3sc4c(c3c2[nH]c1=O)CCCC4
Kd: > 4 mM (inactive)

CC(=O)OC[C@H]1O[C@@H](Oc2cc(OC(C)=O)c3c(=O)cc(-c4ccc(OC(C)=O)cc4)oc3c2)[C@H](OC(C)=O)[C@@H](OC(C)=O)[C@@H]1OC(C)=O
Kd: > 4 mM (inactive)

Cn1nc(C(C)(C)C)cc1N
Kd: > 4 mM (inactive)

O=C(Nc1ccc2c(c1)OCO2)c1cccs1
Kd: > 4 mM (inactive)

Cn1c(NCC(=O)O)nc2c1c(=O)[nH]c(=O)n2C
Kd: > 4 mM (inactive)

CC(=O)Nc1cccc(N2C(=O)CCC2=O)c1
Kd: > 4 mM (inactive)

CC(=O)c1ccc[nH]1
Kd: > 4 mM (inactive)

NC(=O)CC[C@H](N)C(=O)O
Kd: > 4 mM (inactive)

OCc1csc(-c2cccs2)n1
Kd: > 4 mM (inactive)

CC(C)n1c(-c2ccncc2)n[nH]c1=S
Kd: > 4 mM (inactive)

CC1(C)CC2C1CCC1(C)OC1CCC2(C)O (configuration not stated)
Kd: > 4 mM (inactive)

COc1ccc2cc1Oc1ccc(cc1)C[C@H]1c3c(cc4c(c3Oc3cc5c(cc3OC)CCN(C)[C@@H]5C2)OCO4)CCN1C
Kd: > 4 mM (inactive)

CC(=O)Nc1ccc(S(=O)(=O)NC2=NCCS2)cc1
Kd: > 4 mM (inactive)

Brc1cccc(-c2nnco2)c1
Kd: > 4 mM (inactive)

CC(=O)N(c1ccccc1)C1C=CS(=O)(=O)C1 (configuration not stated)
Kd: > 4 mM (inactive)

COc1ccccc1-c1nc(=S)[nH][nH]1
Kd: > 4 mM (inactive)

CC(=O)Nc1ccc(Nc2nnc(C)c(=O)[nH]2)cc1
Kd: > 4 mM (inactive)

O=S1(=O)CCC(NCCO)C1 (configuration not stated)
Kd: > 4 mM (inactive)

CC(=O)N1CCN(c2ccc(N)cc2)CC1
Kd: > 4 mM (inactive)

O=C(O)C1CC(=O)N(Cc2cccs2)C1 (configuration not stated)
Kd: > 4 mM (inactive)

NC12CC3CC(C1)CC(O)(C3)C2
Kd: > 4 mM (inactive)

CN1CCN(C(=O)c2ccco2)CC1
Kd: > 4 mM (inactive)

O=C(NC(=O)N1CCOCC1)c1ccccc1
Kd: > 4 mM (inactive)

O=C(NCc1ccccn1)c1ccccc1Cl
Kd: > 4 mM (inactive)

O=C(/C=C/c1ccccc1)c1ccc(O[C@@H]2O[C@H](CO)[C@@H](O)[C@H](O)[C@H]2O)cc1O
Kd: > 4 mM (inactive)

O=C(COc1ccccc1Cl)N1CCCC1
Kd: > 4 mM (inactive)
